Experimental data taken from patent publication US9227935B2, “Piperidine/piperazine derivatives” (Janssen Pharmaceutica N.V., priority 2007, dated 2016).

Target: T1, human DGAT1 (Homo sapiens, UniProt O75907)
T1 construct: FLAG (N); made in house; host or cells: SF9 insect cells (baculovirus, pFastBac); total cell membranes used as the enzyme source
T1 sequence (O75907 1-488): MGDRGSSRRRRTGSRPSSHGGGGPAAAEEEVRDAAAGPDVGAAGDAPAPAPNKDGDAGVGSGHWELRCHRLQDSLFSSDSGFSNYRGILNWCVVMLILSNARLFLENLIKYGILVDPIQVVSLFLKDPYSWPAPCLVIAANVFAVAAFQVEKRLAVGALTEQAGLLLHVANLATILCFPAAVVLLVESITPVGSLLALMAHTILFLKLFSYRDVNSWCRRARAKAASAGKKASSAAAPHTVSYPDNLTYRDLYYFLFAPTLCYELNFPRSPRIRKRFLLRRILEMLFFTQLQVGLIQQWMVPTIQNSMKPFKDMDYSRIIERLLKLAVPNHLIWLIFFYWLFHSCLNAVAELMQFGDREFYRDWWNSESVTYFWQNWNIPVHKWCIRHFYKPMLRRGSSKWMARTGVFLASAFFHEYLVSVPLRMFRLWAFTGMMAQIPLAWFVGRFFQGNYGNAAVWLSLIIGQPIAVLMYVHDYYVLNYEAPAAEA
Assay: DGAT1 FlashPlate inhibition assay with DGAT1 membrane preparations
Assay type: biochemical
Conditions: IC50 values expressed in M; pIC50 = -logIC50; inhibition of DGAT1 activity
From the text: The inhibiting activity of the present compounds on DGAT1 activity was screened in a single well procedure assay using DGAT1 comprising membrane preparations and DGAT1 substrate comprising micelles and determining formed radio-active triacylglycerol coming in close proximity of a flashplate surface by radioluminescence.
Said assay is described in full detail in WO2006/067071, the content of which is incorporated herein by reference.
By DGAT1 activity is meant the transfer of coenzyme A activated fatty acids to the 3-position of 1,2-diacylglycerols, thus forming a triglyceride molecule, by enzyme DGAT1.
human DGAT1 (NM012079.2) was cloned into the pFastBac vector, containing translation start, a FLAG-tag at the N-terminus as described in literature and a viral Kozak sequence (AAX) preceding the ATG to improve expression in insect cells. Expression was done as described in literature (Cases, S., Smith, S. J., Zheng, Y., Myers H. M., Lear, S. R., Sande, E., Novak, S., Collins, C., Welch, C. B., Lusis, A. J., Erickson, S. K. and Farese, R. V. (1998) Proc. Natl. Acad. Sci. USA 95, 13018-13023.) using SF9 cells.
72 h transfected SF9 cells were collected by centrifugation (13000 rpm-15 min-4° C.) and lysed in 2×500 ml lysis buffer (0.1M Sucrose, 50 mM KCl, 40 mM KH2PO4, 30 mM EDTA pH 7.2. Cells were homogenized by cell disruptor. After centrifugation 1380 rpm-15 min-4° C. (SN discarded), pellet was resuspended in 500 ml lysis buffer and total cell membranes collected by ultracentrifugation at 34000 rpm (100 000 g) for 60 min (4° C.). The collected membranes were resuspended in lysis buffer, divided in aliquots and stored with 10% glycerol at −80° C. until use.
Add 1 ml dioleoyl-sn-glycerol (10 mg/ml) to 10 ml of L-α-phosphatidylcholine (1 mg/ml) and 10 ml of L-α-phosphatidyl-L-serine (1 mg/ml) in a thick glass recipient. Evaporate under nitrogen and put on ice for 15 minutes. Reconstitute in 10 ml Tris/HCl (10 mM, pH 7.4) by sonication on ice. The sonification process consists of sonification cycles of 10 seconds in the sonification bath followed by 10 seconds cool down on ice and repeating this sonification cycle till a homogeneous solution is obtained (takes about 15 minutes). The thus obtained micelles are stored at −20° C. till later use and contain DAG at a final concentration of 1.61 mM.
• 50 mM Tris-HCl (pH 7.4), 150 mM MgCl2, 1 mM EDTA, 0.2% BSA. b) N-ethylmaleimide, 5M • Dissolve 5 g into a final volume of 8 ml DMSO 100% and store at −20° C. in aliquots till later use. c) Substrate mix (for 1 384 well plate=3840 μl) • 612 μl micelles stock (51 μM final) • 16.6 μl oleoylCoA 9.7 mM • 23 μl [^3H]-oleoylCoA (49 Ci/mmol, 500 μCi/ml) • 3188.4 μl Tris pH 7.4, 10 mM d) Enzyme mix (for 1 384 well plate=3520 μl) (5 μg/ml) • Add 11.73 μl of DGAT membrane stock (1500 μg/ml stock) to 3508 μl assay buffer. e) Stop mix (for 1 384 well plate=7.68 ml) (250 mM) • Add 384 μl of N-ethylmaleimide (5M) to 3.456 ml DMSO 100%, and further dilute 3.84 ml of said solution with 3.84 ml DMSO 10%. Method
DGAT activity in membrane preparations was assayed in 50 mM Tris-HCl (pH 7.4), 150 mM MgCl2, 1 mM EDTA and 0.2% BSA, containing 50 μM DAG, […] PC/PS and 8.4 μM [^3H]-oleoylCoA (at a specific activity of 30 nCi/well) in a final volume of 50 μl in 384-well format using the red shifted Basic Image FlashPlate™ (Perkin Elmer Cat. No. SMP400).
In detail, 10 μl enzyme mix and 10 μl substrate mix were added to 30 μl of assay buffer, optionally in the presence of 1 μl DMSO (blank and controls) or 1 μl of the compound to be tested. This reaction mixture was incubated for 120 minutes at 37° C. and the enzymatic reaction stopped by adding 20 μl of the stop mix. The plates were sealed and the vesicles allowed to settle overnight at room temperature. Plates were centrifuged for 5 minutes at 1500 rpm and measured in Leadseeker. […]

| Structure (SMILES) | IC50 [nM] |
| --- | --- |
| CC(C)(C)OC(=O)N1CC(C(=O)Nc2ccc(C3CCN(C(=O)Nc4c(Cl)cccc4Cl)CC3)cc2)C1 [Compound 1] | 8.13 |
| Cc1nc(C(=O)Nc2ccc(N3CCN(C(=O)Nc4c(Cl)cccc4Cl)CC3)cc2)c(-c2ccc(C(C)C)cc2)s1 [Compound 2] | 112 |
| Cc1nc(C(=O)Nc2ccc(C3CCN(C(=O)Nc4c(Cl)cccc4Cl)CC3)cc2)c(-c2ccc(C(C)C)cc2)s1 [Compound 3] | 1170 |
| O=C(Nc1ccc(N2CCN(C(=O)NCC3CCCCC3)CC2)cc1)c1ccccc1-c1ccc(C(F)(F)F)cc1 [Compound 5] | 7590 |
| Cc1ccccc1NC(=O)N1CCC(c2ccc(NC(=O)c3ccccc3-c3ccc(C(F)(F)F)cc3)cc2)CC1 [Compound 7] | 3470 |
| O=C(Nc1ccc(N2CCN(C(=O)Nc3c(Cl)cccc3Cl)CC2)cc1)c1cccc(N2CCCC2=O)c1 [Compound 13] | 11 |
| Cc1ccc(C)n1-c1ccc(C(=O)Nc2ccc(N3CCN(C(=O)Nc4c(Cl)cccc4Cl)CC3)cc2)cc1 [Compound 19] | 145 |
| Cc1ccc(C)n1-c1cccc(C(=O)Nc2ccc(N3CCN(C(=O)Nc4c(Cl)cccc4Cl)CC3)cc2)c1 [Compound 20] | 30.9 |
| Cc1n[nH]c(C)c1-c1ccccc1C(=O)Nc1ccc(N2CCN(C(=O)Nc3c(Cl)cccc3Cl)CC2)cc1 [Compound 26] | 398 |
| Cc1cc(C)n(-c2cccc(C(=O)Nc3ccc(N4CCN(C(=O)Nc5c(Cl)cccc5Cl)CC4)cc3)c2)n1 [Compound 28] | 5.01 |
| O=C(Nc1ccc(N2CCN(C(=O)Nc3c(Cl)cccc3Cl)CC2)cc1)c1ccc(-n2cnnc2)cc1 [Compound 29] | 776 |
| CC(C)(C)c1ccc(-c2ccccc2C(=O)Nc2ccc(N3CCN(C(=O)Nc4c(Cl)cccc4Cl)CC3)cc2)cc1 [Compound 35] | 117 |
| Cc1ccccc1-c1cccc(C(=O)Nc2ccc(N3CCN(C(=O)Nc4c(Cl)cccc4Cl)CC3)cc2)c1 [Compound 36] | 1.74 |
| O=C(Nc1ccc(N2CCN(C(=O)Nc3c(Cl)cccc3Cl)CC2)cc1)c1ccc(N2CCOCC2)cc1 [Compound 38] | 11 |
| O=C(Nc1ccc(N2CCN(C(=O)Nc3c(Cl)cccc3Cl)CC2)cc1)c1ccccc1N1CCOCC1 [Compound 39] | 380 |
| O=C(Nc1ccc(N2CCN(C(=O)Nc3c(Cl)cccc3Cl)CC2)cc1)c1cccc(N2CCCCS2(=O)=O)c1 [Compound 41] | 19.1 |
| O=C(Nc1ccc(N2CCN(C(=O)Nc3c(Cl)cccc3Cl)CC2)cc1)c1cccc(N2CCS(=O)(=O)CC2)c1 [Compound 43] | 437 |
| CN1CCN(c2ccc(C(=O)Nc3ccc(N4CCN(C(=O)Nc5c(Cl)cccc5Cl)CC4)cc3)cc2)CC1 [Compound 44] | 100 |

Further molecules by falling IC50, results first:

| IC50 [nM] | Structure (SMILES) |
| --- | --- |
| 9120 | O=C(Nc1ccc(N2CCN(C(=O)c3c(Cl)cccc3Cl)CC2)cc1)c1ccccc1-c1ccc(C(F)(F)F)cc1 [Compound 6] |
| 3310 | O=C(Nc1ccc(N2CCN(C(=O)Nc3c(Cl)cccc3Cl)CC2)cc1)c1ccccc1-c1nnn[nH]1 [Compound 32] |
| 1950 | O=C(Nc1ccc(N2CCN(C(=O)Nc3c(Cl)cccc3Cl)CC2)cc1)c1ccc(-c2nnn[nH]2)cc1 [Compound 33] |
| 1380 | O=C(Nc1ccc(N2CCN(C(=O)Nc3c(Cl)cccc3Cl)CC2)cc1)c1ccccc1-n1ccnc1 [Compound 22] |
| 1170 | O=C(Nc1ccc(N2CCN(C(=O)Nc3c(Cl)cccc3Cl)CC2)cc1)c1ccccc1N1CCS(=O)(=O)CC1 [Compound 42] |
| 1120 | CN1CC(C(=O)Nc2ccc(N3CCN(C(=O)Nc4c(Cl)cccc4Cl)CC3)cc2)CC1=O (stereo not shown) [Compound 11] |
| 347 | O=C(Nc1ccc(N2CCN(C(=O)Nc3c(Cl)cccc3Cl)CC2)cc1)c1ccc(-n2ccnc2)cc1 [Compound 24] |
| 324 | Nc1ccccc1C(=O)Nc1ccc(C2CCN(C(=O)Nc3c(Cl)cccc3Cl)CC2)cc1 [Compound 10] |
| 269 | Cc1nnnn1-c1cccc(C(=O)Nc2ccc(N3CCN(C(=O)Nc4c(Cl)cccc4Cl)CC3)cc2)c1 [Compound 31] |
| 70.8 | O=C(Nc1ccc(N2CCN(C(=O)Nc3c(Cl)cccc3Cl)CC2)cc1)c1ccc(-c2cc[nH]n2)cc1 [Compound 25] |
| 56.2 | O=C(Nc1ccc(N2CCN(C(=O)Nc3c(Cl)cccc3Cl)CC2)cc1)c1ccccc1-c1nc2ccccc2[nH]1 [Compound 45] |
| 40.7 | CCc1nc(C)c(-c2ccccc2C(=O)Nc2ccc(N3CCN(C(=O)Nc4c(Cl)cccc4Cl)CC3)cc2)s1 [Compound 18] |
| 33.1 | O=C(Nc1ccc(N2CCN(C(=O)Nc3c(Cl)cccc3Cl)CC2)cc1)c1cccc(-n2ccnc2)c1 [Compound 23] |
| 24.5 | O=C(Nc1ccc(N2CCN(C(=O)Nc3c(Cl)cccc3Cl)CC2)cc1)c1ccccc1-c1ccco1 [Compound 4] |
| 20.4 | O=C(Nc1ccc(N2CCN(C(=O)Nc3c(Cl)cccc3Cl)CC2)cc1)c1ccccc1-c1ccccc1 [Compound 34] |
| 12.9 | O=C(Nc1ccc(N2CCN(C(=O)Nc3c(Cl)cccc3Cl)CC2)cc1)c1ccc(-c2cnco2)cc1 [Compound 15] |
| 12 | O=C(Nc1ccc(N2CCN(C(=O)Nc3c(Cl)cccc3Cl)CC2)cc1)c1cccc(-c2cnco2)c1 [Compound 16] |
| 8.91 | O=C(Nc1ccc(N2CCN(C(=O)Nc3c(Cl)cccc3Cl)CC2)cc1)c1ccc(-n2cccn2)cc1 [Compound 21] |
| 6.61 | O=C(Nc1ccc(N2CCN(C(=O)Nc3c(Cl)cccc3Cl)CC2)cc1)c1cccc(N2CCOCC2)c1 [Compound 40] |
| 4.47 | Cc1nc(-c2ccc(C(=O)Nc3ccc(N4CCN(C(=O)Nc5c(Cl)cccc5Cl)CC4)cc3)cc2)no1 [Compound 30] |
| 3.89 | Cc1cc(C)n(-c2ccc(C(=O)Nc3ccc(N4CCN(C(=O)Nc5c(Cl)cccc5Cl)CC4)cc3)cc2)n1 [Compound 27] |
| 2.09 | Cc1nc(-c2cccc(C(=O)Nc3ccc(N4CCN(C(=O)Nc5c(Cl)cccc5Cl)CC4)cc3)c2)cs1 [Compound 17] |
| 1.74 | O=C(Nc1ccc(N2CCN(C(=O)Nc3c(Cl)cccc3Cl)CC2)cc1)c1cccc(N2CCCCC2)c1 [Compound 37] |
| 1.35 | O=C(Nc1ccc(N2CCN(C(=O)Nc3c(Cl)cccc3Cl)CC2)cc1)c1cccc(N2CCCC2)c1 [Compound 12] |
| 0.977 | O=C(Nc1ccc(N2CCN(C(=O)Nc3c(Cl)cccc3Cl)CC2)cc1)c1cccc(-c2ccco2)c1 [Compound 14] |
